Where a SMILES comes first, the peptide text is derived from it.
Legend:
[1] = target: T1, TRPV2 (Homo sapiens, UniProt Q9Y5S1); assay: Electrophysiological recording, ligand activation of TRPV2; format: cell-based; settings: IC 50 TRPV2
T1 construct: expressed in transfected cells; host or cells: HEK293T
T1 sequence (Q9Y5S1 1-764): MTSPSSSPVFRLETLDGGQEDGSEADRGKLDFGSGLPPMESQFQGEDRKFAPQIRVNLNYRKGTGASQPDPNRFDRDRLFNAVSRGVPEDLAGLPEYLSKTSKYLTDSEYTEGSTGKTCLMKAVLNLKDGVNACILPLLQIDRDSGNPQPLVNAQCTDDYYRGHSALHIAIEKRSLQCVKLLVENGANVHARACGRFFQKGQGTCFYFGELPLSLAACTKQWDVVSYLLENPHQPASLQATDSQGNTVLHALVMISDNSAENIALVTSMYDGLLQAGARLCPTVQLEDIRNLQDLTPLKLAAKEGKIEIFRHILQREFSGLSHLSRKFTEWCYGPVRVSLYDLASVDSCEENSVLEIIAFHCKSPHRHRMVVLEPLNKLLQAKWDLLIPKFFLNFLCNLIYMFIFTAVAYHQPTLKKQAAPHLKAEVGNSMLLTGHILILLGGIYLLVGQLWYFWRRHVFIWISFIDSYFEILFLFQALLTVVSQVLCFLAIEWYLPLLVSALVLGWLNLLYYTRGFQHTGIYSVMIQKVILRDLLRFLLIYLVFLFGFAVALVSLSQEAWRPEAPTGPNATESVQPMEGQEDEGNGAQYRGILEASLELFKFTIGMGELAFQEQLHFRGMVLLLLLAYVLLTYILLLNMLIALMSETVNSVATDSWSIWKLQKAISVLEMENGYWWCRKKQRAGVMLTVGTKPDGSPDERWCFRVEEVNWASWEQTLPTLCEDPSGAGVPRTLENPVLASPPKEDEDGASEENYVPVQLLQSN
Protocol: (§1) HEK293T cells were cultured in Dulbecco's modified Eagle culture medium under a 37° C., 5% CO2 environment, 10% fetal bovine serum, penicillin (100 U/mL), and streptomycin ([…]) was needed to add into the culture medium. Transient transfection was conducted by using Lipo 2000 (Invitrogen) transfection kit and following the instruction manual.
(§2) Electrophysiological experiment recordings were performed on the cells within 24˜48 h of transient transfections. Specifically, single channel electrophysiological recordings were performed within 8 h after transfection.
(§3) Measurement of the cell currents was respectively performed in the whole-cell recording mode, inside-out recording mode or outside-out recording mode with a HEKA EPC10 amplifier. In the whole cell electrophysiological recordings, glass microelectrodes made of borosilicate material were fire-polished to a original electrode resistance of about 3-6 MΩ. Serial resistance was compensated by 60%. The whole cell electrophysiological recordings were performed at ±80 mV. For single channel electrophysiological recordings, glass microelectrodes were fire-polished to a higher resistance of 6-8 MΩ2. Current signal was sampled at 10 kHz and filtered at 2.9 kHz. Membrane potential of the cell membrane would be clamped at +80 mV. All electrophysiological recordings were performed at room temperature (22° C.) (the maximum variation is 1° C.). […]

[2] = target: T2, TRPM4 (Mus musculus, UniProt Q7TN37, K1045A); assay: Electrophysiological recording, ligand activation of TRPM4 (TRPM4-K1045A); format: cell-based
T2 construct: expressed in transfected cells; host or cells: HEK293T
Protocol: as §1, §2, §3

[3] = target: T3, Nav1.5 (Homo sapiens, UniProt Q14524); assay: Electrophysiological recording of Nav1.5 sodium current; format: cell-based
T3 construct: expressed in transfected cells; host or cells: HEK293T
Protocol: as §1, §2, §3

[4] = test system: oxaliplatin-induced cold allodynia; assay: Oxaliplatin-induced cold allodynia, acetone evaporating cold test; format: in vivo, mice; settings: 3.5 μg/20 μL intraplantar, day 10 after oxaliplatin
Protocol: Adult male CD1 mice (6-8 weeks old) were used as experimental animals for behavioral experiments and primary cultures of DRG neurons. Mice were raised in the condition of 12 h light/12 h dark of light cycle with adequate standard chow and water. All animal protocols were approved by the Institutional Animal Care and Use Committee (IACUC) of Zhejiang University.
All of mice were habituated to the behavioral testing environment for 1-to-2 hours in 2-to-3 days before the behavioral testing. Single intraperitoneal (i.p.) injection of oxaliplatin (6 mg/kg body weight) was given to generate chemotherapy-induced neuropathic pain. Neuropathic pain behaviors were tested about 10 days after oxaliplatin injection.
Acetone-induced evaporating cold test was used to assess the oxaliplatin-induced cold allodynia. 50 μL acetone was gently splashed to the hind-paw plantar of oxaliplatin-treated mice via a syringe attached with plastic tube. The time spent in withdrawing, flinching or licking the stimulated paw was recorded and blindly counted during 5 min after acetone treatment. The cold allodynia behavior of mice was respectively measured on day 10 pre- or post-treatment with oxaliplatin, Vehicle or 3.5 μg/20 μL DeC-1.2 was intraplantarly injected to assess its analgesic effect on oxaliplatin-induced allodynia.

[5] = target: TRPM8 (Mus musculus, UniProt Q8R4D5); assay: Inside-out single-channel recording of menthol-activated TRPM8 at +80 mV; format: cell-based; design: expressed in transfected cells; host or cells: HEK293T
Protocol: as §1, §2
Measurement of the cell currents was respectively performed in the whole-cell recording mode, inside-out recording mode or outside-out recording mode with a HEKA EPC10 amplifier. In the whole cell electrophysiological recordings, glass microelectrodes made of borosilicate material were fire-polished to a original electrode resistance of about 3-6 MΩ. Serial resistance was compensated by 60%. The whole cell electrophysiological recordings were performed at ±80 mV. For single channel electrophysiological recordings, glass microelectrodes were fire-polished to a higher resistance of 6-8 MΩ2. Current signal was sampled at 10 kHz and filtered at 2.9 kHz. Membrane potential of the cell membrane would be clamped at +80 mV. All electrophysiological recordings were performed at room temperature (22° C.) (the maximum variation is 1° C.).
There were different bath and pipette solutions prepared for different ion channels current measurement. For ion channels such as TRPM8, TRPV1, TRPV2, TRPV3 and TRPA1, the formula of the bath and pipette solutions was: 130 mM NaCl, 0.2 mM EDTA and 3 mM HEPES, pH=7.2. For the current measurement of TRPM4 ion channel, the formula of the bath solution was: 130 mM NaCl and 3 mM HEPES, pH=7.2, and the formula of the pipette solution was: 500 μM CaCl2), 130 mM NaCl and 3 mM HEPES, pH=7.2. For the current measurement of TRPM2 ion channel, the formula of the bath solution was: 147 mM NaCl, 2 mM KCl, 1 mM MgCl2, 10 mM HEPES, 2 mM CaCl2) 13 mM Glucose, pH=7.4, and the formula of the pipette solution was: 147 mM NaCl, 1 mM MgCl2, 10 mM HEPES, pH=7.4. For the current measurement of Nav1.5, Nav1.7 ion channels, the formula of the bath solution was: 140 mM NaCl, 3 mM KCl, 1 mM MgCl2, 1 mM CaCl2), 10 mM HEPES, pH=7.2 and the formula of the pipette solution was: 140 mM CsF, 1 mM EGTA, 10 mM NaCl, 10 mM MgCl2, 3 mM KCl, pH=7.2. To evoke sodium channel current, the membrane potential was increased from −80 mV to +10 mV.
A rapid solution changer with a gravity-driven perfusion system (RSC-200, BioLogic) was used to rapidly perfuse specific solutions into the cells to be tested. Each solution was delivered through a separate tube so that there is no mixing of solutions. The glass microelectrode with a membrane patch was placed directly below the outlet of the perfusion tube during the electrophysiology recordings.

Sequence of TRPM8 (Q8R4D5 whole entry): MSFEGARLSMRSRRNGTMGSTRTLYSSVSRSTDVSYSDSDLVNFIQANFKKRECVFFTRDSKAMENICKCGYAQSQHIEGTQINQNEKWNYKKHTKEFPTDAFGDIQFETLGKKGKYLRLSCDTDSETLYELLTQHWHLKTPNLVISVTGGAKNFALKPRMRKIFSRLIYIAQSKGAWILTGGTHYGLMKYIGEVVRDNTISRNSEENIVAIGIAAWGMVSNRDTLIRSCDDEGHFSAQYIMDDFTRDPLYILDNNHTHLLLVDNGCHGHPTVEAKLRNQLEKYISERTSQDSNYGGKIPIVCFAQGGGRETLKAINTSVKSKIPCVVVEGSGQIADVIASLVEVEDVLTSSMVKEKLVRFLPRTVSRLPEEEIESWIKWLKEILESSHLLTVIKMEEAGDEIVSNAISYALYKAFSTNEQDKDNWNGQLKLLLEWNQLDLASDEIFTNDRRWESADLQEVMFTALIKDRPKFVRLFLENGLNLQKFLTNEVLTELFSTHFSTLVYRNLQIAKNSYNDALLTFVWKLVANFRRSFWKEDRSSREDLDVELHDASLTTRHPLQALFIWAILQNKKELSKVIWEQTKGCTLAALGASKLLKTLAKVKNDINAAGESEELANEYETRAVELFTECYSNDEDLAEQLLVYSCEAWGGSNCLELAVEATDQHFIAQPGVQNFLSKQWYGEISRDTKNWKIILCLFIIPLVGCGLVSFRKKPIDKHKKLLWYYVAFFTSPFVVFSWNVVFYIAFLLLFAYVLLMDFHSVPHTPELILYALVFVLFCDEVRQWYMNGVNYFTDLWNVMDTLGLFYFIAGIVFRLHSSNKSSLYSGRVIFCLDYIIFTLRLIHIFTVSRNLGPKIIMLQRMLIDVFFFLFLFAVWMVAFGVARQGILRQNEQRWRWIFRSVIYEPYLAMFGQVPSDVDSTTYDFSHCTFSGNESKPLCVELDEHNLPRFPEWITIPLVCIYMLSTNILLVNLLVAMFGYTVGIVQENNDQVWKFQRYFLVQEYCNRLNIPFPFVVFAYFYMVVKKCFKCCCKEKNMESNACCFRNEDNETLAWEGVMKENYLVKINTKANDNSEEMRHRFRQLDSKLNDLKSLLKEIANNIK
T3 sequence (Q14524 whole entry): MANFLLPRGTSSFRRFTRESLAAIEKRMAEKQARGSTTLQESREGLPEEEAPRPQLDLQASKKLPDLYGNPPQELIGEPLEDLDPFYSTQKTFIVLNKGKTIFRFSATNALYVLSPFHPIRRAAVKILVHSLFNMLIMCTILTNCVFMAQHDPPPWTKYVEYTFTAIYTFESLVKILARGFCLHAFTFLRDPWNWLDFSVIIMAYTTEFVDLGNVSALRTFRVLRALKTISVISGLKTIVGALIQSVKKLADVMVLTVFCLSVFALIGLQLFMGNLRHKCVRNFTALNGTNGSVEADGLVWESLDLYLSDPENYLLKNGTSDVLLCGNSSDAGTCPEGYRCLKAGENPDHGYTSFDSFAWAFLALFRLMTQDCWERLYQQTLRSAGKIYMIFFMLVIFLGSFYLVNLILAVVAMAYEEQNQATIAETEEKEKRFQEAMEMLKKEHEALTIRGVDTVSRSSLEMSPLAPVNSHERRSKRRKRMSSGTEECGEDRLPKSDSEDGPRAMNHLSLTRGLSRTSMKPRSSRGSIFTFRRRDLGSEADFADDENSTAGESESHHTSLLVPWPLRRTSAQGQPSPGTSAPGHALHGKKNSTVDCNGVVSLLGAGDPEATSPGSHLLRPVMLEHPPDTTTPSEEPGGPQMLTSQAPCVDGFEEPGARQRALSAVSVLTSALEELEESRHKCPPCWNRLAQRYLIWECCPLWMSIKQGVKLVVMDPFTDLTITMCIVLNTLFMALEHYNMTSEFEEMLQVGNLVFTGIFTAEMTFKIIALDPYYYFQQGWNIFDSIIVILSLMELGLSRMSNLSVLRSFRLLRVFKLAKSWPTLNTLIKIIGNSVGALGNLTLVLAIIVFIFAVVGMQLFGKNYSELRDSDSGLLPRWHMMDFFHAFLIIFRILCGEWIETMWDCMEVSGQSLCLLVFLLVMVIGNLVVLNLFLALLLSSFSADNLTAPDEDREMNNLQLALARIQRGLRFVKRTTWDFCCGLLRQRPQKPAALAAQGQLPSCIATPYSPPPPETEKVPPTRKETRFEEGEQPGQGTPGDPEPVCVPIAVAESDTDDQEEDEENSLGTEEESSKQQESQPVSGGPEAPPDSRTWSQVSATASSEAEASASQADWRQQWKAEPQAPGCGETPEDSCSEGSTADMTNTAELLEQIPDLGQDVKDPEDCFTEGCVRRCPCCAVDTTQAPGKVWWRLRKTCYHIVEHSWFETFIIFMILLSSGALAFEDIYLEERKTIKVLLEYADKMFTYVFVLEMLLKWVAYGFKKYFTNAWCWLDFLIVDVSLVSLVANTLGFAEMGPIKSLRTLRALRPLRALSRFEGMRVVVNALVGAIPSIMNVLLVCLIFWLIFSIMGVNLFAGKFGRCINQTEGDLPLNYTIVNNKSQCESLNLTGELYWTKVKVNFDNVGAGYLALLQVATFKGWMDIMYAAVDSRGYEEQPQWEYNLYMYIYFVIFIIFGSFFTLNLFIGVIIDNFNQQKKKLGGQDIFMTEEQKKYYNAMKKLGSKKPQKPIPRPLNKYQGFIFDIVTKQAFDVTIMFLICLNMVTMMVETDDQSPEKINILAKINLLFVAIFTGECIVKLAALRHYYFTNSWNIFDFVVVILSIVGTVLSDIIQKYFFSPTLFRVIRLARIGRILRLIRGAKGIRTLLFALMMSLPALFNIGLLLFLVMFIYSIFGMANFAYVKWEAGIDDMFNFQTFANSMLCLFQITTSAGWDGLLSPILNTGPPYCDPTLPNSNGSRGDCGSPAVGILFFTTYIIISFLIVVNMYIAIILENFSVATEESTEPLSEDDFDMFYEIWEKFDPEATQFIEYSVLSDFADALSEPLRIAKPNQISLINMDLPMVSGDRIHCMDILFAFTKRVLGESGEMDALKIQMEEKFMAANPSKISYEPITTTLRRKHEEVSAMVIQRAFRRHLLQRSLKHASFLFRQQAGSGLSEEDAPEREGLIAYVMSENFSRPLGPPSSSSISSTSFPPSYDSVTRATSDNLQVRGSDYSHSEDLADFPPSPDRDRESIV
T2 sequence (Q7TN37 whole entry K1045A): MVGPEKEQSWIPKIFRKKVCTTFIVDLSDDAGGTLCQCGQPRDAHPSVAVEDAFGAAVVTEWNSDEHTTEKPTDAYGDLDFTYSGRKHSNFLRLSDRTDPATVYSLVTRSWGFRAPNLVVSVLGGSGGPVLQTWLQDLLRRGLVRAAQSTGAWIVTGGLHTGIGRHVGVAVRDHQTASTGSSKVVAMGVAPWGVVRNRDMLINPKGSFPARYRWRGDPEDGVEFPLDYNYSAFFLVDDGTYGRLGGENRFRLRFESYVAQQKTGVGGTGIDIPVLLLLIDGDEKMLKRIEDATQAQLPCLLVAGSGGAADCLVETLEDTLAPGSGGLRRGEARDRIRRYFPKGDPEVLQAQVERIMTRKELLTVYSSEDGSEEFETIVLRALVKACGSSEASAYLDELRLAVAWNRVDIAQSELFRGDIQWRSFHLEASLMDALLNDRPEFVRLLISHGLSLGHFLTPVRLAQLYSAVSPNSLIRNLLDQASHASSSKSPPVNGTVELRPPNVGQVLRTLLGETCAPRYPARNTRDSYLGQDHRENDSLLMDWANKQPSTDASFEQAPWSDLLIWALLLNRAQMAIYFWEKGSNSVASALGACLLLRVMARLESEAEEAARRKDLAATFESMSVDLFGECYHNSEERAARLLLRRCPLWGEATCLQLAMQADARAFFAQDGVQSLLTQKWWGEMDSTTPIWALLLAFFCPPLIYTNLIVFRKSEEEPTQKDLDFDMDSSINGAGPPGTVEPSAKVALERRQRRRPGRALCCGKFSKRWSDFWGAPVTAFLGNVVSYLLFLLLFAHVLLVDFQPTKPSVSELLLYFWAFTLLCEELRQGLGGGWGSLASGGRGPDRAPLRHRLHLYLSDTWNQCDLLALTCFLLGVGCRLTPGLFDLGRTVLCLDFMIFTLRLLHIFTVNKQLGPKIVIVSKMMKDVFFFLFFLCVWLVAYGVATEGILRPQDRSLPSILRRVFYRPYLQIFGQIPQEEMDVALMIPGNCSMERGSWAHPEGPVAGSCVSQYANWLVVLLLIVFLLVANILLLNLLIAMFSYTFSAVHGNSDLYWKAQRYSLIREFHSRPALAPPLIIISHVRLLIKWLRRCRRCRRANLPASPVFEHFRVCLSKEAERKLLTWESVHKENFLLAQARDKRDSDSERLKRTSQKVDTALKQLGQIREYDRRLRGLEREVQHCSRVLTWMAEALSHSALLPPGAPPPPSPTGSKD

C[C@@H]1NC(=O)[C@H](CCCNC(=N)N)NC(=O)[C@H](CC(=O)O)NC(=O)[C@H](CCCNC(=N)N)NC(=O)[C@H](CCCNC(=N)N)NC(=O)[C@@H](N)CSSC[C@@H](C(=O)O)NC(=O)[C@H](CCCNC(=N)N)NC(=O)[C@H](CCC(N)=O)NC(=O)[C@H](CCCNC(=N)N)NC(=O)[C@H](Cc2ccc(O)cc2)NC(=O)[C@H](Cc2c[nH]cn2)NC(=O)[C@H](CCCNC(=N)N)NC1=O [DeC-1.2, CRRDRARHYRQRC] (HELM PEPTIDE1{C.R.R.D.R.A.R.H.Y.R.Q.R.C}$PEPTIDE1,PEPTIDE1,1:R3-13:R3$$$V2.0; N-terminus and C-terminus assumed)
IC50 [1]: > 5 µM | IC50 [2]: > 10 µM | IC50 [3]: > 100 µM | inhibition of Nav channels ([3]; Nav1.5): none of the TRP channels and Nav channels were inhibited | cold pain behavior induced by acetone evaporation (acetone score) [4]: significantly improved the cold pain behavior | open probability of TRPM8 ([5]; DeC-1.2 100 μM with saturated menthol (1 mM), n=5): 18.83±1.92% | change of single-channel conductance of menthol-activated TRPM8 ([5]; DeC-1.2 100 μM, menthol 1 mM): decreases significantly | change of open probability of menthol-activated TRPM8 ([5]; DeC-1.2 100 μM, menthol 1 mM, P<0.0001): decreases significantly

From patent US20240417428A1, “POLYPEPTIDE FOR INHIBITING TRPM8 AND USE THEREOF” (ZHEJIANG UNIVERSITY, priority 2021, published 2024)
